Literature values in patent publication US9358209B2, “Econazole composition and methods of treatment therewith” (Exeltis USA Dermatology, Inc., priority 2010, dated 2016).

How the values were obtained:
[1] = Liao et al., Yao Xue Xue Bao 28(1):22-7 (1993)
dermatophytes and yeasts = details: most strains of E. floccosum, M. audouinii, M. canis, M. gypseum, T. mentagrophytes, T. rubrum, T. tonsurans, C. albicans, M. furfur

Row | Compound | antifungal activity relative to other stereoisomer [1] | activity against dermatophytes and yeasts (dermatophytes and yeasts)
1 | Clc1ccc(CO[C@@H](Cn2ccnc2)c2ccc(Cl)cc2Cl)cc1 [(R)-(−)-econazole] | greater antifungal activity | 
2 | Clc1ccc(COC(Cn2ccnc2)c2ccc(Cl)cc2Cl)cc1 (centres unmarked) [Econazole nitrate] |  | has shown activity
